The record followed here is article PMC5161585 (Nature, 2016).

The target in data set [1] is T1, κOR (Homo sapiens, UniProt P41145). Kind of data set: Gi/o Glosensor assay at κOR. The data set is classed as cell-based.
The target in data set [2] is T2, human μOR (Homo sapiens, UniProt P35372). Kind of data set: β-arrestin-2 recruitment by BRET in HEK-293T cells. The data set is classed as cell-based. (In general: Recruitment of arrestin is a read-out of receptor activation apart from second messengers.)
Data set [3] concerns C57BL/6J mice. As to the kind of experiment: Hotplate assay subcategorized into affective and reflexive responses. In kind it is in vivo, mouse. Conditions: for analgesia on affective versus reflexive component of pain: morphine 10 mg/kg, PZM21 20 mg/kg.
Data set [4] has as its system mice. Kind of data set: Formalin injection nociception assay. In kind it is in vivo, mouse. Conditions: morphine 10 mg/kg, PZM21 40 mg/kg.
Data set [5] deals with mice. As to the kind of experiment: Conditioned place preference. In kind it is in vivo, mouse. Conditions: morphine 10 mg/kg, PZM21 20 mg/kg, TRV130 1.2 mg/kg.
Data set [6] concerns the target T1, κOR. As to the kind of experiment: Radioligand binding at κOR. Conditions: read-out: κOR Ki.
The target in data set [7] is T3, δOR (Homo sapiens, UniProt P41143). As to the kind of experiment: Radioligand binding at δOR. As to conditions: read-out: δOR Ki.
For data set [8], the target named is T3, δOR. As to the kind of experiment: Gi/o Glosensor assay at δOR. In kind it is cell-based.
Data set [9] has as its target nociceptin receptor (Homo sapiens, UniProt P41146). As to the kind of experiment: Gi/o Glosensor assay at nociceptin receptor. The data set is classed as cell-based.
Data set [10] has as its system 320 non-olfactory GPCRs. As to the kind of experiment: PRESTO-Tango GPCRome β-arrestin recruitment screen. The data set is classed as cell-based. As to conditions: 10 μM screen, hits re-tested in full dose–response.
For data set [11], the target named is SSTR4 (Homo sapiens, UniProt P31391). As to the kind of experiment: Gi/o Glosensor assay measuring SSTR4 activation. The data set is classed as cell-based.
In data set [12] the test system is Oprm1−/− mice. As to the kind of experiment: Hotplate assay in μOR knockout mice. In kind it is in vivo, mouse. As to conditions: morphine 10 mg/kg, PZM21 20 mg/kg, 30 min.
Data set [13] has as its system mice. As to the kind of experiment: Accumulated faecal boli quantification. The data set is classed as in vivo, mouse. As to conditions: morphine 10 mg/kg, PZM21 20 mg/kg.
The subject of data set [14] is mice. Kind of data set: Whole-body mouse plethysmography. The data set is classed as in vivo. Conditions: equi-analgesic doses: PZM21 40 mg/kg, TRV130 1.2 mg/kg, morphine 10 mg/kg.
The subject of data set [15] is mice. As to the kind of experiment: Open field locomotor response. In kind it is in vivo, mouse. Conditions: morphine 10 mg/kg, PZM21 20 mg/kg.
In data set [16] the test system is mice. Kind of data set: Catalepsy bar test. In kind it is in vivo, mouse. Conditions: PZM21 20 mg/kg, morphine 10 mg/kg.
Data set [17] in a line: Pharmacokinetics of PZM21, serum and brain levels. The data set is classed as in vivo, mouse. Conditions: 20 mg/kg subcutaneous, mice.
Data set [18] can be described thus: Metabolism in mouse liver microsomes. In kind it is in vitro ADME. As to conditions: over one hour, 80 μM. On the technique in general: Liver microsomes are a subcellular fraction often used to study metabolism.
Data set [19] relates to C57BL/6J mice. As to the kind of experiment: Mouse tail-flick assay. As to conditions: in vivo. For orientation: Thermal pain tests record how soon the animal reacts.
In data set [20] the test system is C57BL/6J mice. As to the kind of experiment: Mouse hotplate analgesia assay. As to conditions: 15 min after the highest dose tested (40 mg/kg), subcutaneous.
In data set [21] the target is T2, human μOR. Kind of data set: Receptor internalization, PathHunter GPCR internalization assay in U2OS cells. In kind it is cell-based.
For data set [22], the target named is T2, human μOR. Kind of data set: BRET-based. In kind it is cell-based. As to conditions: read-out: EC50 in CAMYEL-based Gi/o signalling assay.

The structures appear in SMILES notation. Entries after “also recorded” stand apart in the source; their conditions may differ.

T3 sequence (P41143 whole entry): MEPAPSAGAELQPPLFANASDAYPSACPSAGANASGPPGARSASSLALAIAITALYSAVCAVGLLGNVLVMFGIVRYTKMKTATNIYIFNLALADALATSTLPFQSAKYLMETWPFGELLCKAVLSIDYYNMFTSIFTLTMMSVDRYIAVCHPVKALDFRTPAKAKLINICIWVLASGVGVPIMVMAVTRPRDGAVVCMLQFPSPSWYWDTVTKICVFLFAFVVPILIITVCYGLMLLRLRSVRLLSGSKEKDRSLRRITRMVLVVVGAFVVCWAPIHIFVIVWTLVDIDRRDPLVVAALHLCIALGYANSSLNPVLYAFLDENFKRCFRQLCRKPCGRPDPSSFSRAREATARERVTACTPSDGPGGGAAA
T1 sequence (P41145 whole entry): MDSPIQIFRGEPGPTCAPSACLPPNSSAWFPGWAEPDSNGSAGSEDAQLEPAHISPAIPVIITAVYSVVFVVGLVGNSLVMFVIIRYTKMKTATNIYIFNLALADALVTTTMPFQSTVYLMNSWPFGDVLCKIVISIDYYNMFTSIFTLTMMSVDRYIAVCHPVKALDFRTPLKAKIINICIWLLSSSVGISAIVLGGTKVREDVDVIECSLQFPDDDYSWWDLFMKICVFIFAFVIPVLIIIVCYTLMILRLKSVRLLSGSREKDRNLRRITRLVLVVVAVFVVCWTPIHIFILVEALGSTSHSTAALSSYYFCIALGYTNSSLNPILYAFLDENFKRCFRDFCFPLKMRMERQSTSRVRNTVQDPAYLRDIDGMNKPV
T2 sequence (P35372 whole entry): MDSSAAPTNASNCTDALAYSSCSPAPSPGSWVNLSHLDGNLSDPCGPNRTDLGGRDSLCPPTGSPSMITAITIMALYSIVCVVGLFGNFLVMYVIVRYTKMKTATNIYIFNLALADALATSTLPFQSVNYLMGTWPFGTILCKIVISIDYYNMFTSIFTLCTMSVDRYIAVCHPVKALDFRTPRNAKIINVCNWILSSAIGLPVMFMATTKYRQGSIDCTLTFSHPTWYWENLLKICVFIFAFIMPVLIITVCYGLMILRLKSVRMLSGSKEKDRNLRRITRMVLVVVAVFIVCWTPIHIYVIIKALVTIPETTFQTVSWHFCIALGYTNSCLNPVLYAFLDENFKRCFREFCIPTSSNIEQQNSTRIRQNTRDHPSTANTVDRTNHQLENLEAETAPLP
Chain of nociceptin receptor (P41146 whole entry, species assumed): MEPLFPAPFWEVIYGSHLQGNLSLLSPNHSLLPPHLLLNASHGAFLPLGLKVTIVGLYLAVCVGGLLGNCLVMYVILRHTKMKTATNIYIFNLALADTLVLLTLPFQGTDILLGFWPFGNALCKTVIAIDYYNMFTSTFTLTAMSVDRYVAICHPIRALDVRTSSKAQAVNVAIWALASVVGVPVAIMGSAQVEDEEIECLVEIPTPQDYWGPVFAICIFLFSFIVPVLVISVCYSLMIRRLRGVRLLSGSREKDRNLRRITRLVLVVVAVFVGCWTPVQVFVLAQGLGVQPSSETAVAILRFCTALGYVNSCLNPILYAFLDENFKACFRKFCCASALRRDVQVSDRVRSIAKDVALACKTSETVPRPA
Chain of SSTR4 (P31391 whole entry, species assumed): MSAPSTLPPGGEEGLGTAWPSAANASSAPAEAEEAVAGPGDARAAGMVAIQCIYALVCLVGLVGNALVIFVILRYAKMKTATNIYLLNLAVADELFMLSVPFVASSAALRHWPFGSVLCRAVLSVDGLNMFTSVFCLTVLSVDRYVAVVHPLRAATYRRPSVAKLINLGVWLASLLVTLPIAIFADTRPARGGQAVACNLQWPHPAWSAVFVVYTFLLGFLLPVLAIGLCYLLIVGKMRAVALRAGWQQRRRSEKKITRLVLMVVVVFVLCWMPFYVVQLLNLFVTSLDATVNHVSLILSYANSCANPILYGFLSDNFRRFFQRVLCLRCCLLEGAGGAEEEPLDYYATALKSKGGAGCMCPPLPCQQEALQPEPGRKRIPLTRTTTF

Turning to `COC(=O)[C@@H]1C[C@H](OC(=O)c2ccccc2)C(=O)[C@H]2[C@@]1(C)CC[C@H]1C(=O)O[C@H](c3ccoc3)C[C@]21C` [Herkinorin, herkinorin], in data set [1], the “κOR agonist activity (in words)” value was “potent agonists of the κOR”. Moreover, the “arrestin recruitment in BRET assay in the absence of GRK2 overexpression” value in data set [2] was “robustly recruits arrestin”.

`CN1CC[C@]23c4c5ccc(O)c4O[C@H]2[C@@H](O)C=C[C@H]3[C@H]1C5` [morphine, reference compound]: the “analgesia on affective versus reflexive component of pain” value in [3] is given as “induces changes in both behaviours”. Further, the “analgesia in formalin injection nociception assay” value in [4] is “sustained analgesia”. Besides, in data set [5], the conditioned place preference result was “Place preference is induced”.

Broadly, the Ki is the dissociation constant of the complex between target and ligand, obtained from inhibition or displacement. `C[C@@H](Cc1ccsc1)NC(=O)NC[C@H](Cc1ccc(O)cc1)N(C)C` [PZM21]: the figures for the Ki in data set [6] and in data set [7] were 18 nM and 506 nM, respectively. For the same molecule, the “δOR Gi/o (Glosensor) Emax” value in data set [8] is listed as 78%. Further, the EC50 in [8] (read-out: δOR Gi/o (Glosensor) EC50) was 1900 nM. For the same molecule, the “κOR agonist activity (in words)” value in [1] is listed as “no detectable κOR or nociceptin receptor agonist activity”. The “nociceptin receptor agonist activity (in words)” value in data set [9] is on record as “no detectable κOR or nociceptin receptor agonist activity”. Also, the “agonism at other GPCRs” value in data set [10] is recorded as “no potent activity was confirmed with a full dose–response experiment”. Also, the “SSTR4 activation, cAMP inhibition” value in [11] is “does not show a dose-dependent change in cAMP inhibition”. The duration of analgesia result in [3] (hotplate) is recorded as “up to 180 min”. Moreover, in data set [3], the “analgesia on affective versus reflexive component of pain” value is given as “solely confers analgesia to the affective component of pain; also recorded: only modulates the attending (affective) component”. In [4], the “analgesia in formalin injection nociception assay” value is reported as “active in a formalin injection nociception assay”. Also, the “analgesic response in hotplate assay in μOR knockout mice” value in data set [12] is reported as “completely ablates the observed analgesic response”. Besides, in data set [13], the “constipating effect (accumulated faecal boli)” value is given as “constipating effect is substantially less than morphine”. The “effect on respiration frequency” value in data set [14] is on record as “almost undistinguishable from vehicle”. Besides, the “effect on locomotion in open-field assay” value in data set [15] is “no apparent effect on locomotion versus vehicle”. The conditioned place preference result in [5] is recorded as “does not induce a conditioned place preference response”. The cataleptic effect entry in [16] was “minimal cataleptic effect compared to morphine”. In [17], the “peak level in brain tissue” value is listed as 197 ng per g. Moreover, in data set [17] (at brain peak), the concomitant serum concentration is 1,253 ng/ml. In addition, in data set [18], the “metabolism by mouse liver microsomes” value is given as 8%. Besides, the “analgesic effect in tail-flick assay” value in data set [19] is given as “no analgesic effect”. For the same molecule, the “per cent maximal possible effect (% MPE), hotplate” value in data set [20] is listed as 87%.

In the case of `COc1ccsc1CNCC[C@@]1(c2ccccn2)CCOC2(CCCC2)C1` [TRV130], in data set [1], the “κOR agonist activity (in words)” value was “potent agonists of the κOR”. Moreover, the μOR internalization result in data set [21] was “much decreased receptor internalization versus DAMGO and even morphine”. For the same molecule, the “effect on respiration frequency” value in data set [14] was “significantly depresses respiration at 15 min”. In [5], the conditioned place preference entry is “not significant relative to vehicle”.

Consider `CN(C)[C@H](CNC(=O)NCCc1ccccc1)Cc1ccc(O)cc1` [PZM22], for which, in data set [22], the EC50 amounted to 1.8 nM.
